Assay results as given in ChEMBL document CHEMBL4219034, “Synthesis, antimicrobial activity, structure-activity relationship and cytotoxic studies of a new series of functionalized (Z)-3-(2-oxo-2-substituted ethylidene)-3,4-dihydro-2H-benzo[b][1,4]oxazin-2-ones” (Bioorg Med Chem Lett, 2017).
Converted amounts (≈) assume the structure as drawn. The source made the active and inactive calls. No cut-off for these calls is given here.

Assays:
Staphylococcus aureus [1] = experiment: Antibacterial activity against Staphylococcus aureus MTCC 3381 at 100 ug/ml incubated for 12 hrs by agar disc diffusion assay; format: functional; conditions: for zone of inhibition at 100 µg/mL: MTCC 3381, 12 h, read-out: IZ
Aspergillus niger [2] = experiment: Antifungal activity against Aspergillus niger ATCC 9029 incubated for 24 hrs by serial dilution method; format: functional
Trichoderma reesei [3] = experiment: Antifungal activity against Trichoderma reesei ATCC 13631 at 100 ug/ml incubated for 72 hrs by agar disc diffusion assay; format: functional; conditions: for zone of inhibition at 100 µg/mL: ATCC 13631, 72 h, read-out: IZ
Bacillus subtilis [4] = experiment: Antibacterial activity against Bacillus subtilis MTCC 10619 incubated for 24 hrs by serial dilution method; format: functional
Trichoderma reesei [5] = experiment: Antifungal activity against Trichoderma reesei ATCC 13631 incubated for 24 hrs by serial dilution method; format: functional
Escherichia coli [6] = experiment: Antibacterial activity against Escherichia coli MTCC 443 incubated for 24 hrs by serial dilution method; format: functional
Escherichia coli [7] = experiment: Antibacterial activity against Escherichia coli MTCC 443 at 100 ug/ml incubated for 12 hrs by agar disc diffusion assay; format: functional; conditions: for zone of inhibition at 100 µg/mL: MTCC 443, 12 h, read-out: IZ
Staphylococcus aureus [8] = experiment: Antibacterial activity against Staphylococcus aureus MTCC 3381 incubated for 24 hrs by serial dilution method; format: functional
Fusarium oxysporum [9] = experiment: Antifungal activity against Fusarium oxysporum ATCC 62506 at 100 ug/ml incubated for 72 hrs by agar disc diffusion assay; format: functional; conditions: for zone of inhibition at 100 µg/mL: ATCC 62506, 72 h, read-out: IZ
Talaromyces funiculosus [10] = experiment: Antifungal activity against Penicillium funiculosum ATCC 11797 incubated for 24 hrs by serial dilution method; format: functional
Talaromyces funiculosus [11] = experiment: Antifungal activity against Penicillium funiculosum ATCC 11797 at 100 ug/ml incubated for 72 hrs by agar disc diffusion assay; format: functional; conditions: for zone of inhibition at 100 µg/mL: ATCC 11797, 72 h, read-out: IZ
Bacillus subtilis [12] = experiment: Antibacterial activity against Bacillus subtilis MTCC 10619 at 100 ug/ml incubated for 12 hrs by agar disc diffusion assay; format: functional; conditions: for zone of inhibition at 100 µg/mL: MTCC 10619, 12 h, read-out: IZ
Aspergillus niger [13] = experiment: Antifungal activity against Aspergillus niger ATCC 9029 at 100 ug/ml incubated for 72 hrs by agar disc diffusion assay; format: functional; conditions: for zone of inhibition at 100 µg/mL: ATCC 9029, 72 h, read-out: IZ
Streptomyces griseus [14] = experiment: Antibacterial activity against Streptomyces griseus MTCC 4734 incubated for 24 hrs by serial dilution method; format: functional
Bacillus subtilis [15] = experiment: Potency index, ratio of ampicillin MIC to compound MIC for Bacillus subtilis MTCC 10619 by serial dilution method; format: functional
Streptomyces griseus [16] = experiment: Antibacterial activity against Streptomyces griseus MTCC 4734 at 100 ug/ml incubated for 12 hrs by agar disc diffusion assay; format: functional; conditions: for zone of inhibition at 100 µg/mL: MTCC 4734, 12 h, read-out: IZ
Fusarium oxysporum [17] = experiment: Antifungal activity against Fusarium oxysporum ATCC 62506 incubated for 24 hrs by serial dilution method; format: functional
[18] = Cytotoxicity against mouse NIH/3T3 cells assessed as cell viability at 250 ug/ml after 72 hrs by MTT assay relative to control; format: cell-based, NIH3T3; conditions: read-out: Activity
[19] = Cytotoxicity against mouse NIH/3T3 cells assessed as cell viability at 100 ug/ml after 72 hrs by MTT assay relative to control; format: cell-based, NIH3T3; conditions: read-out: Activity
[20] = Cytotoxicity against mouse NIH/3T3 cells assessed as cell viability at 25 ug/ml after 72 hrs by MTT assay relative to control; format: cell-based, NIH3T3; conditions: read-out: Activity
[21] = Cytotoxicity against mouse NIH/3T3 cells assessed as cell viability at 50 ug/ml after 72 hrs by MTT assay relative to control; format: cell-based, NIH3T3; conditions: read-out: Activity
Bacillus subtilis [22] = experiment: Potency index, ratio of chloramphenicol MIC to compound MIC for Bacillus subtilis MTCC 10619 by serial dilution method; format: functional

SMILES	inhibition zone (IZ) (Trichoderma reesei [3])	MIC (Bacillus subtilis [4]; MTCC 10619, 24 h)	MIC (Trichoderma reesei [5])	MIC (Escherichia coli [6]; MTCC 443, 24 h)	zone of inhibition at 100 µg/mL (Escherichia coli [7])	zone of inhibition at 100 µg/mL (Bacillus subtilis [12])	MIC (Streptomyces griseus [14]; MTCC 4734, 24 h)	zone of inhibition at 100 µg/mL (Streptomyces griseus [16])	zone of inhibition at 100 µg/mL (Staphylococcus aureus [1])	MIC (Bacillus subtilis [4])	viability at 72 h, 250 ug/ml [18]	MIC (Staphylococcus aureus [8]; MTCC 3381, 24 h)	zone of inhibition at 100 µg/mL (Fusarium oxysporum [9])	viability at 72 h, 100 ug/ml [19]	MIC (Talaromyces funiculosus [10])	viability at 72 h, 25 ug/ml [20]	inhibition zone (IZ) (Talaromyces funiculosus [11])	MIC (Fusarium oxysporum [17]; ATCC 62506, 24 h)	MIC (Aspergillus niger [2])	inhibition zone (IZ) (Aspergillus niger [13])	other results
O=C1Oc2ccccc2N/C1=C\C(=O)c1ccc(C2CCCCC2)cc1	inactive	6.25 µg/mL (≈ 18 µM)	inactive	100 µg/mL (≈ 288 µM)	8 mm	22 mm	50 µg/mL (≈ 144 µM)	10 mm	–	–	–	–	–	–	–	–	–	–	–	–	inhibition zone (IZ) (Staphylococcus aureus [1]): inactive; MIC (Aspergillus niger [2]; ATCC 9029, 24 h): 50 µg/mL (≈ 144 µM); MIC (Staphylococcus aureus [8]): inactive; inhibition zone (IZ) (Fusarium oxysporum [9]): inactive; MIC (Talaromyces funiculosus [10]; ATCC 11797, 24 h): 50 µg/mL (≈ 144 µM); zone of inhibition at 100 µg/mL (Talaromyces funiculosus [11]): 6 mm; zone of inhibition at 100 µg/mL (Aspergillus niger [13]): 6 mm; Ratio (Bacillus subtilis [15]): 4; MIC (Fusarium oxysporum [17]): inactive
O=C1Oc2ccc([N+](=O)[O-])cc2N/C1=C\C(=O)C1CC1	inactive	–	inactive	50 µg/mL (≈ 182 µM)	14 mm	–	6.25 µg/mL (≈ 22.8 µM)	22 mm	6 mm	inactive	73.7%	100 µg/mL (≈ 365 µM)	22 mm	79.5%	inactive	93.2%	inactive	12.5 µg/mL (≈ 45.6 µM)	–	–	MIC (Aspergillus niger [2]; ATCC 9029, 24 h): 100 µg/mL (≈ 365 µM); viability at 72 h, 50 ug/ml [21]: 86%; inhibition zone (IZ) (Bacillus subtilis [12]): inactive; zone of inhibition at 100 µg/mL (Aspergillus niger [13]): 6 mm
O=C1Oc2ccc(Cl)cc2N/C1=C\C(=O)C1CC1	inactive	100 µg/mL (≈ 379 µM)	inactive	50 µg/mL (≈ 190 µM)	10 mm	8 mm	–	–	12 mm	–	79.1%	12.5 µg/mL (≈ 47.4 µM)	22 mm	86.6%	inactive	99%	inactive	12.5 µg/mL (≈ 47.4 µM)	inactive	inactive	viability at 72 h, 50 ug/ml [21]: 90.3%; MIC (Streptomyces griseus [14]): inactive; inhibition zone (IZ) (Streptomyces griseus [16]): inactive
O=C1Oc2cc([N+](=O)[O-])ccc2N/C1=C\C(=O)c1cccc2ccccc12	–	–	–	12.5 µg/mL (≈ 34.7 µM)	26 mm	–	–	–	8 mm	inactive	76.3%	100 µg/mL (≈ 278 µM)	18 mm	83%	–	93.5%	–	25 µg/mL (≈ 69.4 µM)	inactive	inactive	zone of inhibition at 100 µg/mL (Trichoderma reesei [3]): 18 mm; MIC (Trichoderma reesei [5]; ATCC 13631, 24 h): 25 µg/mL (≈ 69.4 µM); MIC (Talaromyces funiculosus [10]; ATCC 11797, 24 h): 25 µg/mL (≈ 69.4 µM); viability at 72 h, 50 ug/ml [21]: 88.9%; zone of inhibition at 100 µg/mL (Talaromyces funiculosus [11]): 20 mm; inhibition zone (IZ) (Bacillus subtilis [12]): inactive; MIC (Streptomyces griseus [14]): inactive; inhibition zone (IZ) (Streptomyces griseus [16]): inactive
O=C1Oc2ccc([N+](=O)[O-])cc2N/C1=C\C(=O)c1cccc2ccccc12	inactive	100 µg/mL (≈ 278 µM)	inactive	100 µg/mL (≈ 278 µM)	10 mm	4 mm	100 µg/mL (≈ 278 µM)	4 mm	–	–	–	–	10 mm	–	inactive	–	inactive	50 µg/mL (≈ 139 µM)	inactive	inactive	inhibition zone (IZ) (Staphylococcus aureus [1]): inactive; MIC (Staphylococcus aureus [8]): inactive
O=C1Oc2cc([N+](=O)[O-])ccc2N/C1=C\C(=O)c1ccc(C2CCCCC2)cc1	–	3.12 µg/mL (≈ 7.95 µM)	–	25 µg/mL (≈ 63.7 µM)	18 mm	24 mm	50 µg/mL (≈ 127 µM)	10 mm	14 mm	–	78.3%	12.5 µg/mL (≈ 31.9 µM)	20 mm	84.6%	–	97.8%	–	25 µg/mL (≈ 63.7 µM)	–	–	MIC (Aspergillus niger [2]; ATCC 9029, 24 h): 100 µg/mL (≈ 255 µM); zone of inhibition at 100 µg/mL (Trichoderma reesei [3]): 12 mm; MIC (Trichoderma reesei [5]; ATCC 13631, 24 h): 25 µg/mL (≈ 63.7 µM); MIC (Talaromyces funiculosus [10]; ATCC 11797, 24 h): 100 µg/mL (≈ 255 µM); Ratio (Bacillus subtilis [22]): 2; viability at 72 h, 50 ug/ml [21]: 89%; zone of inhibition at 100 µg/mL (Talaromyces funiculosus [11]): 14 mm; zone of inhibition at 100 µg/mL (Aspergillus niger [13]): 8 mm; Ratio (Bacillus subtilis [15]): 8
O=C1Oc2ccccc2N/C1=C\C(=O)C1CC1	–	–	–	50 µg/mL (≈ 218 µM)	10 mm	–	–	–	4 mm	inactive	–	100 µg/mL (≈ 436 µM)	8 mm	–	inactive	–	inactive	100 µg/mL (≈ 436 µM)	inactive	inactive	zone of inhibition at 100 µg/mL (Trichoderma reesei [3]): 4 mm; MIC (Trichoderma reesei [5]; ATCC 13631, 24 h): 100 µg/mL (≈ 436 µM); inhibition zone (IZ) (Bacillus subtilis [12]): inactive; MIC (Streptomyces griseus [14]): inactive; inhibition zone (IZ) (Streptomyces griseus [16]): inactive
Cc1ccc2c(c1)N/C(=C\C(=O)c1cccc3ccccc13)C(=O)O2	inactive	–	inactive	–	–	–	–	–	–	inactive	–	–	–	–	inactive	–	inactive	–	inactive	inactive	inhibition zone (IZ) (Staphylococcus aureus [1]): inactive; MIC (Escherichia coli [6]): inactive; inhibition zone (IZ) (Escherichia coli [7]): inactive; MIC (Staphylococcus aureus [8]): inactive; inhibition zone (IZ) (Fusarium oxysporum [9]): inactive; inhibition zone (IZ) (Bacillus subtilis [12]): inactive; MIC (Streptomyces griseus [14]): inactive; inhibition zone (IZ) (Streptomyces griseus [16]): inactive; MIC (Fusarium oxysporum [17]): inactive
